Test results from patent US20050240041A1, “Palm-based hydroxy fatty acid” (priority 2004, published 2005).
“Also recorded” adds a separate entry of the source.

What was measured:
[1] = cited from earlier work
[2] = in-vitro dermal (skin) irritection test
Protocol: (§1) The purified palm DHSA obtained in the laboratory was subjected to in-vitro and in-vivo dermal irritection test which confirmed that the compound is non irritant, and thus suitable as one of the ingredients used in cosmetic products. The details of the current invention is described below.
In the recrystallization technique, the crude DHSA is dissolved in the solvent with a slight heating of the mixture (about 50° C. to 60° C.). The solution is left to cool down gradually to ambient temperature and further cooled at about 10° C. to 15° C. to ensure maximum yield. The precipitate obtained is filtered and dried. The product referred to, as purified palm DHSA is a white powdery solid with waxy sensation. The non-irritancy properly was conducted through in vitro derived skin irritection study.

[3] = in-vivo dermal irritection test
Excerpt: as §1

CCCCCCCCC(O)C(O)CCCCCCCC(=O)O (stereo not drawn) [9,10-dihydroxystearic acid]
solubility in ether ([1]; ether): slightly soluble | solubility in hot alcohol or acetone ([1]; hot alcohol or acetone): soluble | solubility in water ([1]; water): insoluble

CCCCCCCCC(O)C(O)CCCCCCCC(=O)O (stereo not drawn) [purified DHSA, 9,10-dihydroxystearic acid]
irritancy ([2]; test not named at this place): non-irritant

CCCCCCCCC(O)C(O)CCCCCCCC(=O)O (stereo not drawn) [purified palm DHSA, 9,10-dihydroxystearic acid]
dermal irritancy [3]: non irritant | dermal irritancy ([2]; in vitro dermal/skin irritection study): non irritant; also recorded: non-irritant
